# How the values were obtained:
# [1] = target: integrase (Human immunodeficiency virus type 1 group M subtype B, UniProt P04585); assay: Integrase inhibitor in vitro; type: biochemical
# [2] = tested on: viral DNA; assay: Quantification of total viral DNA synthesized and of DNA integrated into the host cell genome after infection (Butler et al.); type: cell-based; conditions: FIG. 1
# Protocol: FIG. 1, the quantification of the total viral DNA synthesized 6 hours after infection and the quantity of viral DNA integrated into the genome 8 hours after infection, and
# Study of the Quantification of the Total Viral DNA Synthesized and of the DNA Integrated into the Genome of a Host Cell after Infection
# The operation described by Butler et al. in Nat. Med. 2001 May; 7 (5): 631-4 is carried out.
# [3] = target: T1, integrase of HIV-1 (Human immunodeficiency virus type 1 group M subtype B, UniProt P04585); assay: Nuclear import test on the integrase of HIV-1 in permeabilized HeLa cells; type: cell-based; conditions: 30 minutes at 30° C., FIGS. 5 and 6
# T1 construct: incubated for 30 minutes at 30° C. with integrase coupled with Cyanine 3 fluorochrome
# Protocol: FIGS. 5 and 6 show the quantification of the fluorescence intensity measured in a nuclear import test on the integrase of HIV-1 in permeabilized HeLa cells in the presence or absence of cytoplasmic extracts.
# The import tests in FIG. 5 were carried out as described in Depienne et al. 2001. HeLa cells were permeabilized with Digitonin, then incubated for 30 minutes at 30° C. with integrase coupled with Cyanine 3 fluorochrome in the presence of energy, in the absence of cytosolic extracts and in the presence or absence of increasing concentrations of different molecules as indicated. The cells were then fixed, analyzed by epifluorescence microscopy and acquisitions were carried out with a CCD camera.
# For each condition, the fluorescence intensity per surface unit was quantified in 150 to 300 nuclei originating from 3 independent experiments.
# The data of FIGS. 6 and 7 were obtained as follows: HeLa cells were permeabilized with digitonin, then incubated for 30 minutes at 30° C. with integrase conjugated to Cyanine 3 fluorochrome and with bovine serum albumin (BSA) conjugated to the standard nuclear localization signal of the T antigen of the SV40 virus (NLS) and with fluorescein (BSA-NLS), in the presence of cytosolic extracts and energy and in the presence or in the absence of increasing concentrations of different molecules as indicated. […]
# [4] = tested on: virus; conditions: integrase mutations at V165 and V249, and at C280 for a second virus
smiles,measurement,setting,value
"COc1cc(/C=C/c2ccc3ccc(C(=O)[O-])c(O)c3n2)cc(O)c1O.[Na+] [FZ41, 8-hydroxy-2-[2-[(3,4-dihydroxy,5-methoxyphenyl)ethenyl]]7-quinoline carboxylic acid]",Integrase inhibitor in vitro,[1],YES
same,total viral DNA synthesized,[2]; 6 hours after infection,strong reduction
same,viral DNA integrated into the genome,[2]; 8 hours after infection,strong reduction
same,nuclear import of integrase (fluorescence in the nuclei of permeabilized cells),[3],considerably reduce
same,emergence of resistant viruses,[4],emergence of viruses resistant to the drug

# From patent US7479497B2, “Use of quinoline derivatives with anti-integrase effect and applications thereof” (priority 2002, dated 2009)
